Assay results published in patent US4362746A (priority 1981, dated 1982).
Counter-ions that a name gives are not always drawn. Like-named read-outs stand apart in the source and are kept apart here.

Key:
[1] = system: influenza virus A2 /Aichi/2/68; assay type: in vivo, mice (Charles River, random bred white, female); conditions: for Mean Survival Time / Survival % / Survival N (surviving animals / total infected) / Mean Survival Time Increase: 16 days; for Mean Survival Time Increase: vs virus only; for antiviral effect against influenza virus infection: administered intraperitoneally
mice [2] = experiment: Acute toxicity in mice; conditions: after 24 hours
Acute toxicity in mice = conditions: mouse, in vivo
G-2 cells = conditions: maximal non-toxic concentration; G-2 cells; hydrochloride
in vitro = conditions: human, g-2 cells; for MNTC: Cytotoxicity CTD0, maximal non-toxic concentration; for CC50: Cytotoxicity CTD50
Influenza A2 /MTL/68 = experiment: In vitro anti-myxovirus assay, inhibition of hemadsorption, Influenza A2/MTL/68 in G-2 cells; assay type: cell-based, Influenza A2 /Montreal/68; conditions: for inhibition at 5 µg/mL: 5 ug/ml; for inhibition at 10 µg/mL: 10 ug/ml; for inhibition at 25 µg/mL: 25 ug/ml; for inhibition at 33 µg/mL: 33 ug/ml; for inhibition at 50 µg/mL: 50 ug/ml
[3] = system: Influenza A/Swine/1976/31; experiment: microbe, parasite or virus in culture; assay type: cell-based; conditions: in Sus scrofa
mice [4] = experiment: Subacute toxicity in mice; conditions: once a day, seventeenth day of treatment
[5] = Subacute toxicity in mice; conditions: mouse, in vivo
Influenza A2 /Aichi/2/68 = experiment: In vitro anti-myxovirus assay, inhibition of hemadsorption, Influenza A2/Aichi/2/68 in G-2 cells; assay type: cell-based; conditions: for inhibition at 50 µg/mL: 50 ug/ml; for inhibition at 60 µg/mL: 60 ug/ml; for inhibition at 70 µg/mL: 70 ug/ml; for inhibition at 80 µg/mL: 80 ug/ml; for inhibition at 90 µg/mL: 90 ug/ml; for inhibition at 100 µg/mL: 100 ug/ml
[6] = Exp. 1, virus dose 4.1 LD50, 25 mg/kg/day IP
[7] = Exp. 1, virus dose 4.1 LD50, 75 mg/kg/day IP
[8] = Exp. 2, virus dose 2.0 LD50, 75 mg/kg/day IP
[9] = Exp. 3, virus dose 2.6 LD50, 75 mg/kg/day IP
[10] = Exp. 4, virus dose 3.0 LD50, 75 mg/kg/day IP

CN(C)C[C@@H]1C[C@H]2C[C@@H]1c1ccccc12 (relative stereo) [Compound A, endo-2-dimethylaminomethyl-1,2,3,4-tetrahydro-1,4-methanonaphthalene hydrochloride]
Mean Survival Time [1, 6]: 12.7 days | Survival % [1, 6]: 30% | Survival N (surviving animals / total infected) [1, 6]: 6/20 | Mean Survival Time Increase [1, 6]: +0.5 Days | antiviral effect against influenza virus infection [1]: significant antiviral effect | Acute LD0 (non-lethal dose) (mice [2]; IP): 75 mg/kg/day | Acute LD0 (non-lethal dose) (mice [2]; PO): > 750 mg/kg/day | LD50 at 24 h (Acute toxicity in mice; ip): 160 mg/kg | NOAEL at 24 h (Acute toxicity in mice; ip): 25 mg/kg/day | LD50 at 24 h (Acute toxicity in mice; po): > 750 mg/kg | NOAEL at 24 h (Acute toxicity in mice; po): 200 mg/kg/day | Cytotoxicity CTD0 (G-2 cells): 50 µg/mL | MNTC (in vitro): 75 µg/mL | CC50 (in vitro): 100 mg/L | inhibition at 5 µg/mL (Influenza A2 /MTL/68; 32 TCID50): 0% | inhibition at 10 µg/mL (Influenza A2 /MTL/68; 32 TCID50): 23% | inhibition at 25 µg/mL (Influenza A2 /MTL/68; 32 TCID50): 76% | inhibition at 33 µg/mL (Influenza A2 /MTL/68; 32 TCID50): 78% | inhibition at 50 µg/mL (Influenza A2 /MTL/68; 32 TCID50): 97% | inhibition at 5 µg/mL (Influenza A2 /MTL/68; 316 TCID50): 0% | inhibition at 10 µg/mL (Influenza A2 /MTL/68; 316 TCID50): 0% | inhibition at 25 µg/mL (Influenza A2 /MTL/68; 316 TCID50): 27% | inhibition at 33 µg/mL (Influenza A2 /MTL/68; 316 TCID50): 52% | inhibition at 50 µg/mL (Influenza A2 /MTL/68; 316 TCID50): 53% | inhibition at 5 µg/mL ([3]; 56 TCID50, 5 ug/ml): 0% | inhibition at 10 µg/mL ([3]; 56 TCID50, 10 ug/ml): 37% | inhibition at 25 µg/mL ([3]; 56 TCID50, 25 ug/ml): 85% | inhibition at 33 µg/mL ([3]; 56 TCID50, 33 ug/ml): 82% | inhibition at 50 µg/mL ([3]; 56 TCID50, 50 ug/ml): 97% | inhibition at 75 µg/mL ([3]; 56 TCID50, 75 ug/ml): 100% | inhibition at 5 µg/mL ([3]; 562 TCID50, 5 ug/ml): 0% | inhibition at 10 µg/mL ([3]; 562 TCID50, 10 ug/ml): 0% | inhibition at 25 µg/mL ([3]; 562 TCID50, 25 ug/ml): 0% | inhibition at 33 µg/mL ([3]; 562 TCID50, 33 ug/ml): 37% | inhibition at 50 µg/mL ([3]; 562 TCID50, 50 ug/ml): 72% | inhibition at 75 µg/mL ([3]; 562 TCID50, 75 ug/ml): 73% | Subacute LD0 (non-lethal dose) (mice [4]; IP): 75 mg/kg/day | Subacute LD0 (non-lethal dose) (mice [4]; PO): > 750 mg/kg/day | LD50 at 408 h ([5]; ip): 125 mg/kg | NOAEL at 408 h ([5]; ip): 25 mg/kg/day | LD50 at 408 h ([5]; po): > 750 mg/kg | NOAEL at 408 h ([5]; po): 300 mg/kg/day

NC12CC3CC(CC(C3)C1)C2 [AMANTADINE HYDROCHLORIDE, reference compound]
Mean Survival Time [1, 7]: 14.1 days | Survival % [1, 7]: 55% | Survival N (surviving animals / total infected) [1, 7]: 11/20 | Mean Survival Time Increase [1, 7]: +1.9 Days | Mean Survival Time [1, 8]: 15.3 days | Survival % [1, 8]: 80% | Survival N (surviving animals / total infected) [1, 8]: 16/20 | Mean Survival Time Increase [1, 8]: +2.9 Days | Mean Survival Time [1, 9]: 15.1 days | Survival % [1, 9]: 80% | Survival N (surviving animals / total infected) [1, 9]: 16/20 | Mean Survival Time Increase [1, 9]: +4.0 Days | Mean Survival Time [1, 10]: 15.0 days | Survival % [1, 10]: 79% | Survival N (surviving animals / total infected) [1, 10]: 15/19 | Mean Survival Time Increase [1, 10]: +3.7 Days | antiviral effect against influenza virus infection [1]: significant antiviral effect | inhibition at 50 µg/mL (Influenza A2 /Aichi/2/68; 52 TCID50): 0% | inhibition at 60 µg/mL (Influenza A2 /Aichi/2/68; 52 TCID50): 53% | inhibition at 70 µg/mL (Influenza A2 /Aichi/2/68; 52 TCID50): 83% | inhibition at 80 µg/mL (Influenza A2 /Aichi/2/68; 52 TCID50): 70% | inhibition at 90 µg/mL (Influenza A2 /Aichi/2/68; 52 TCID50): 97% | inhibition at 100 µg/mL (Influenza A2 /Aichi/2/68; 52 TCID50): 87% | inhibition at 50 µg/mL (Influenza A2 /Aichi/2/68; 100 TCID50): 0% | inhibition at 60 µg/mL (Influenza A2 /Aichi/2/68; 100 TCID50): 0% | inhibition at 70 µg/mL (Influenza A2 /Aichi/2/68; 100 TCID50): 33% | inhibition at 80 µg/mL (Influenza A2 /Aichi/2/68; 100 TCID50): 27% | inhibition at 90 µg/mL (Influenza A2 /Aichi/2/68; 100 TCID50): 67% | inhibition at 100 µg/mL (Influenza A2 /Aichi/2/68; 100 TCID50): 43% | MNTC (in vitro): 100 µg/mL | CC50 (in vitro): > 100 mg/L | inhibition at 50 µg/mL (Influenza A2 /MTL/68; 316 TCID50): 0% | inhibition at 60 µg/mL (Influenza A2 /MTL/68; 316 TCID50, 60 ug/ml): 0% | inhibition at 70 µg/mL (Influenza A2 /MTL/68; 316 TCID50, 70 ug/ml): 16% | inhibition at 80 µg/mL (Influenza A2 /MTL/68; 316 TCID50, 80 ug/ml): 42% | inhibition at 90 µg/mL (Influenza A2 /MTL/68; 316 TCID50, 90 ug/ml): 46% | inhibition at 100 µg/mL (Influenza A2 /MTL/68; 316 TCID50, 100 ug/ml): 54% | inhibition at 30 µg/mL ([3]; 178 TCID50, 30 ug/ml): 0% | inhibition at 40 µg/mL ([3]; 178 TCID50, 40 ug/ml): 17% | inhibition at 50 µg/mL ([3]; 178 TCID50, 50 ug/ml): 80% | inhibition at 60 µg/mL ([3]; 178 TCID50, 60 ug/ml): 90% | inhibition at 70 µg/mL ([3]; 178 TCID50, 70 ug/ml): 93% | inhibition at 80 µg/mL ([3]; 178 TCID50, 80 ug/ml): 100% | inhibition at 90 µg/mL ([3]; 178 TCID50, 90 ug/ml): 100% | inhibition at 100 µg/mL ([3]; 178 TCID50, 100 ug/ml): 100% | inhibition at 30 µg/mL ([3]; 316 TCID50, 30 ug/ml): 0% | inhibition at 40 µg/mL ([3]; 316 TCID50, 40 ug/ml): 10% | inhibition at 50 µg/mL ([3]; 316 TCID50, 50 ug/ml): 67% | inhibition at 70 µg/mL ([3]; 316 TCID50, 70 ug/ml): 97% | inhibition at 80 µg/mL ([3]; 316 TCID50, 80 ug/ml): 100% | inhibition at 90 µg/mL ([3]; 316 TCID50, 90 ug/ml): 100% | inhibition at 100 µg/mL ([3]; 316 TCID50, 100 ug/ml): 100%
